Calls of active or inactive are those of the source.
Columns and labels:
[1] = target: Genome polyprotein (dengue virus type 2, UniProt P29990); assay: Dengue-2 NS5 methyltransferase inhibitors, primary screen, biochemical, confirmation dose response (AID 588689); type: functional
[2] = target: RNA-editing ligase 1, mitochondrial (Trypanosoma brucei brucei, UniProt P86926); assay: TbREL1 ligase inhibitors, dose response, biochemical, fluorescence, Trypanosoma brucei (AID 1117295); type: functional
Chain of RNA-editing ligase 1, mitochondrial (P86926 whole entry): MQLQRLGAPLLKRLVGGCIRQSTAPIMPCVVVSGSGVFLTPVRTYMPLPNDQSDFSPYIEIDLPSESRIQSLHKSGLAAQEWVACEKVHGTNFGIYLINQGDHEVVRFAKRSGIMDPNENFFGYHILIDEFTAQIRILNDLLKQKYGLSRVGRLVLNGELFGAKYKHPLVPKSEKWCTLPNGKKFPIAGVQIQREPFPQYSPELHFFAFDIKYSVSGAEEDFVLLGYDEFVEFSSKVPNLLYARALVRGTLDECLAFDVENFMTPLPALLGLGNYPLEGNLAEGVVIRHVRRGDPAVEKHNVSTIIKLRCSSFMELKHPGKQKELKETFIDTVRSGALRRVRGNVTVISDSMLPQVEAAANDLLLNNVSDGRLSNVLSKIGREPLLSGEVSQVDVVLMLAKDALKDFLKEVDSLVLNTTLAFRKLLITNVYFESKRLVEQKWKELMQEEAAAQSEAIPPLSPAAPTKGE

[3] = target: Paired box protein Pax-8 (Homo sapiens, UniProt Q06710); assay: inhibitors of PAX8-driven TPO luciferase reporter, dose response, RMG-I cells, cherry-pick (AID 687027); type: functional, cell-based;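 also: luciferase reporter driven by Pax8 target thyroperoxidase promoter measured by SteadyGlo luminescence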
Chain of Paired box protein Pax-8 (Q06710 whole entry): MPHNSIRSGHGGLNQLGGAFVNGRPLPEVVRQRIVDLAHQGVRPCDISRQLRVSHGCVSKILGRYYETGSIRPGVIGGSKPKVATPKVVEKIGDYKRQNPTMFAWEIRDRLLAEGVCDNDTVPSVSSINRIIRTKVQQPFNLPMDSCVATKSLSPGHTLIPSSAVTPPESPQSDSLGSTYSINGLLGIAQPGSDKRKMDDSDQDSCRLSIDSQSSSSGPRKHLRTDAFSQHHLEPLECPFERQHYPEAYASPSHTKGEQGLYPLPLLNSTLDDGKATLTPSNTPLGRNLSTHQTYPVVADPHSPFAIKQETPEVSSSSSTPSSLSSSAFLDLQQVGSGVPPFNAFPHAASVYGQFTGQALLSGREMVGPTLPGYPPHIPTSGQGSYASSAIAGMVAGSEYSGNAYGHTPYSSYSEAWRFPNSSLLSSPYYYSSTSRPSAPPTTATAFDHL

[4] = PAX2 cell-based inhibition, dose response, selectivity assay for PAX8 inhibitor project, plate reader, dry powder samples (AID 743048); type: functional;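 also: HEK293 cells carrying a WT1 promoter luciferase reporter driven by expressed Pax2; potency is for inhibition of Pax2 driven reporter signal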
[5] = cytotoxicity in COV362 ovarian cancer cells, dose response, cytotoxicity control for PAX8 inhibitor project, cell-based, plate reader, dry powder, SA12 (AID 743144); type: functional
[6] = IOSE-T80 ovarian epithelial cell cytotoxicity, dose response, cytotoxicity control for PAX8 inhibitor project, plate reader, dry powder samples (AID 743045); type: functional, cell-based
[7] = PAX5 activity inhibitors, dose response, selectivity assay for PAX8 inhibitor project, cell-based, plate reader, dry powder samples (AID 743047); type: functional;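 also: HEK293 cells carrying a Pax5 driven CD19 promoter luciferase reporter; potency of inhibitors that lower reporter luminescence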
[8] = IGROV1 ovarian cancer cell cytotoxicity, dose response, PAX8 inhibitor project, plate reader, dry powder samples (AID 743043); type: functional, cell-based; conditions: IGROV-1
[9] = cytotoxicity in OVCAR4 cells, dose response, cytotoxicity control for PAX8 inhibitor project, cell-based, plate reader, dry powder, SA11 (AID 743150); type: functional; conditions: OVCAR-4
[10] = cytotoxicity in COV434 cells, dose response, cytotoxicity control for PAX8 inhibitor project, cell-based, plate reader, dry powder, SA7 (AID 743145); type: functional
[11] = cytotoxicity in OV-90 ovarian cancer cells, dose response, PAX8 inhibitor project, cell-based, plate reader, dry powder, SA8 (AID 743149); type: functional
[12] = non-specific cell cytotoxicity, dose response, cytotoxicity control for PAX8 inhibitor project, plate reader, dry powder samples (AID 743021); type: functional, cell-based
[13] = cytotoxicity dependent on PAX8, dose response, cell-based, plate reader, dry powder (AID 743049); type: functional
[14] = target: Transthyretin (Homo sapiens, UniProt P02766); assay: Luminescence-based cell-based high throughput dose response assay to identify activators of Transthyretin (TTR) transcription.; type: functional
[15] = target: ELAV-like protein 1 (Homo sapiens, UniProt Q15717); assay: Identify HuR specific inhibitors.; type: functional
Chain of ELAV-like protein 1 (Q15717 whole entry): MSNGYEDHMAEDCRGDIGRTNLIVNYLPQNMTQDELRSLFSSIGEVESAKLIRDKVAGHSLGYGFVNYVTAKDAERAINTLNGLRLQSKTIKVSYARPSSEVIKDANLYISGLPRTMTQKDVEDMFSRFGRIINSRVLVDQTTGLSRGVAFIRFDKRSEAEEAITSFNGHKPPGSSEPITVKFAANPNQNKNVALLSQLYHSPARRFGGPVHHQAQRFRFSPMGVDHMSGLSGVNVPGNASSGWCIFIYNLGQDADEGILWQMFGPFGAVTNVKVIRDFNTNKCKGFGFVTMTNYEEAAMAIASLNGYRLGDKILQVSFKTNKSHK

[16] = inhibitors of firefly luciferase expression or activity, dose response, H4 neuroglioma cells, luminescence (AID 1990); type: functional, cell-based
[17] = Luminescence Cell-Based Dose Response HTS to Identify Inhibitors of 5'UTR Stem-Loop Driven Prion Protein mRNA Translation in H4 Neuroglioblastoma Cells. [Related pubchem assays: 1827 (Project Summary), 1813 (Primary HTS)]; type: functional
[18] = inhibitors of SNCA 5'UTR-driven reporter translation, confirmation, H4 neuroglioma cells, luminescence (AID 1988); type: functional, cell-based
[19] = inhibitors of HIV Env-driven cell fusion, dose response, cherry-pick (AID 652057); type: functional, cell-based
[20] = off-target signal loss in HeLa-CEM21 co-culture – HeLa F-luc CTL cells, cherry-picked, counter-screen for HIV-1 Env fusion inhibitor project, dose response (AID 652040); type: functional, cell-based;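 also: potency for signal decrease marking cytotoxic or nonspecific inhibition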
[21] = inhibitors of clade B AD8 Env fusion, dose response, cell-based, cherry-pick (AID 652062); type: functional;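 also: luciferase signal from cell-cell fusion driven by HIV-1 clade B AD8 Env; potency is for inhibitors of fusion seen as a drop in luminescence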
[22] = inhibitors of Vif binding to APOBEC3G peptide, primary screen, biochemical, TR-FRET, GST-Vif 1-94, biotin-A3G peptide, dose response retest (AID 1117319); type: functional;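 also: TR-FRET signal of purified GST-Vif binding a biotinylated A3G peptide; inhibitors lower the FRET signal by blocking Vif and A3G binding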
[23] = Luminescence Cell-Based Dose Response HTS to Identify Activators of Luciferase Translation or Activity in H4 […] Cells. [Related pubchem assays: 1829 (Project Summary), 1814 (Primary HTS)]; type: functional
[24] = test system: H4; assay: Luminescence Cell-Based Dose Response HTS to Identify Activators of 5'UTR Stem-Loop Driven Prion Protein mRNA Translation in H4 Neuroglioblastoma Cells. [Related pubchem assays: 1829 (Project Summary), 1814 (Primary HTS)]; type: functional; conditions: Homo sapiens
[25] = target: Heat shock protein HSP 90-alpha (Homo sapiens, UniProt P07900); assay: Luminescence-based dose response biochemical high throughput screening assay for inhibitors of the Heat Shock Protein 90 (HSP90). [Related pubchem assays: 1831 (Summary AID.), 1846 (Confirmation screen.), 1789 (Primary screen.)]

Chain of Genome polyprotein (P29990 2492-3391 limits assumed): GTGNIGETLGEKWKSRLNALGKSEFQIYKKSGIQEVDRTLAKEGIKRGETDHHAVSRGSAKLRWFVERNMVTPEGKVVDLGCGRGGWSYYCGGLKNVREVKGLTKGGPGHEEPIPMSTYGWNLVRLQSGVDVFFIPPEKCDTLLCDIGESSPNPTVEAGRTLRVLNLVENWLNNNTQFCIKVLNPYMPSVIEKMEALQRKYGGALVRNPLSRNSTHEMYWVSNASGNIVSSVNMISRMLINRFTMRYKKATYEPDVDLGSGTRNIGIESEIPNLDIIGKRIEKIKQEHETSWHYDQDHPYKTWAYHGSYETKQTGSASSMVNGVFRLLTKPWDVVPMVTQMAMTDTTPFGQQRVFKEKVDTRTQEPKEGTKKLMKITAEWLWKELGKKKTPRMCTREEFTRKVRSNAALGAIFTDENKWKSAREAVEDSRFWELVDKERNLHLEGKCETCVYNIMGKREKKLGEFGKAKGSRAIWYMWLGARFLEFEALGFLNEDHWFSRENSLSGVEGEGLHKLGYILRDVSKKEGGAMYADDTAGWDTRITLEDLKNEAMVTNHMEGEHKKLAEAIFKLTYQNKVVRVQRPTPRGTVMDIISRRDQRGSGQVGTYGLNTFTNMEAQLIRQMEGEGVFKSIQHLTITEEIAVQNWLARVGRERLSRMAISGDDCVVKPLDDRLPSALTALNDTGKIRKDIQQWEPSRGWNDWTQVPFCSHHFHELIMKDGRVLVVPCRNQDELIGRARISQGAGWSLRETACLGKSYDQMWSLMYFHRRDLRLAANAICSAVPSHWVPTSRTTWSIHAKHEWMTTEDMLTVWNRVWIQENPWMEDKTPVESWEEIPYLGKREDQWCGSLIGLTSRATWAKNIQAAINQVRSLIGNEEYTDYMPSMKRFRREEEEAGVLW

## O=C(CCN1C(=O)S/C(=C/c2ccccc2)C1=O)Nc1ccc(O)c(C(=O)O)c1
[1]
  IC50: 91.6 µM (active)
[2]
  IC50: > 96.6 µM (inactive)

## O=C(Nc1cccc(F)c1)N1CCCCN2[C@H](CO)[C@@H](c3ccc(C#Cc4ccccc4)cc3)[C@H]2C1
[3]
  AC50: 15.4 µM (active)
[4]
  AC50: 20.8 µM (active)
[5]
  AC50: 17 µM (active)
[6]
  AC50: 21.2 µM (active)
[7]
  AC50: 21 µM (active)
[8]
  AC50: 16 µM (active)
[9]
  AC50: 31.1 µM (active)
[10]
  AC50: 11.6 µM (active)
[11]
  AC50: 12.6 µM (active)
[12]
  AC50: 24.4 µM (active)
[13]
  AC50: 15.5 µM (active)

## Cn1nccc1C(=O)N1CCc2ccccc21
[14]
  EC50: > 167 µM (inactive)

## CSC1=NC(=O)/C(=N\Nc2ccc([As](=O)(O)O)cc2)C(N)=N1
[15]
  IC50: 2.7 µM (inactive)

## Cn1c(-c2ccc(Cl)cc2)ccc(C#N)c1=O
[16]
  EC50: 8.33 µM (active)
[17]
  EC50: > 120 µM (not active)
[18]
  EC50: > 120 µM (not active)
[19]
  AC50: 2.46 µM (active)
[20]
  AC50: 2.62 µM (active)
[21]
  AC50: 68.9 µM (active)
[22]
  IC50: > 100 µM (active)

## CCc1ccc(OCc2ccc(C(=O)OC)o2)cc1
[23]
  EC50: 16.4 µM (active)
[24]
  EC50: 2.81 µM (active)
[25]
  IC50: 0.551 µM (active)

— ChEMBL document CHEMBL1201862, “PubChem BioAssay data set” (2004)
